{"source": "patent US20180000085A1", "about": "“USE OF PICOLINAMIDE COMPOUNDS WITH FUNGICIDAL ACTIVITY” (DOW AGROSCIENCES LLC, priority 2014, published 2018)", "key": {"Zymoseptoria tritici": {"system": "Zymoseptoria tritici", "assay": "Leaf blotch of wheat (SEPTTR) disease control on wheat seedlings", "type": "in vivo", "design": "key to SEPTTR 1DP, HV activity at 100 ppm (% control rating) / SEPTTR 3DC, HV activity at 100 ppm (% control rating) / SEPTTR disease control, 1DP / SEPTTR disease control, 3DC / SEPTTR 1DP disease control rating, HV activity / SEPTTR 3DC disease control rating, HV activity / SEPTTR 3DC, LV activity at 125.1 g/H (% Control rating) / SEPTTR 1DP, LV activity at 125.1 g/H (% Control rating) / SEPTTR 1DP disease control rating, LV activity at 125.1 g/H / SEPTTR 3DC disease control rating, LV activity at 125.1 g/H / SEPTTR 3DC disease control rating, HV activity at 100 ppm / SEPTTR 1DP disease control rating, HV activity at 100 ppm / HV activity at 100 ppm SEPTTR 3DC (disease control rating) / HV activity at 100 ppm SEPTTR 1DP (disease control rating) / LV activity at 125.1 g/H SEPTTR 1DP (disease control rating) / LV activity at 125.1 g/H SEPTTR 3DC (disease control rating): A: > 80; B: ≤ 80; C: Not Tested; D: No Activity Observed in the Reported Assay", "conditions": "for LV activity at 125.1 g/H SEPTTR 1DP (disease control rating) / LV activity at 125.1 g/H SEPTTR 3DC (disease control rating) / SEPTTR 1DP, LV activity at 125.1 g/H (% Control rating) / SEPTTR 3DC, LV activity at 125.1 g/H (% Control rating): low volume application; for LV activity at 125.1 g/H SEPTTR 1DP (disease control rating) / SEPTTR 1DP disease control rating, HV activity / SEPTTR 1DP, LV activity at 125.1 g/H (% Control rating): 1 Day Protectant; for LV activity at 125.1 g/H SEPTTR 1DP (disease control rating) / LV activity at 125.1 g/H SEPTTR 3DC (disease control rating) / SEPTTR 1DP disease control rating, HV activity / SEPTTR 3DC disease control rating, HV activity: wheat leaf blotch; for LV activity at 125.1 g/H SEPTTR 3DC (disease control rating) / SEPTTR 3DC disease control rating, HV activity / SEPTTR 3DC, LV activity at 125.1 g/H (% Control rating): 3 Day Curative; for SEPTTR 1DP disease control rating, HV activity / SEPTTR 3DC disease control rating, HV activity: HV application at 100 ppm"}, "Puccinia triticina": {"system": "Puccinia triticina", "assay": "Wheat brown rust (PUCCRT) disease control on wheat seedlings", "type": "in vivo", "design": "key to PUCCRT 3DC, HV activity at 100 ppm (% control rating) / PUCCRT disease control, 3DC / PUCCRT 1DP disease control rating, HV activity / PUCCRT 3DC disease control rating, HV activity / PUCCRT 3DC, LV activity at 125.1 g/H (% Control rating) / PUCCRT 1DP, LV activity at 125.1 g/H (% Control rating) / PUCCRT 3DC disease control rating, LV activity at 125.1 g/H / PUCCRT 1DP disease control rating, LV activity at 125.1 g/H / PUCCRT 3DC disease control rating, HV activity at 100 ppm / PUCCRT 1DP disease control rating, HV activity at 100 ppm / HV activity at 100 ppm PUCCRT 3DC (disease control rating) / LV activity at 125.1 g/H PUCCRT 1DP (disease control rating) / LV activity at 125.1 g/H PUCCRT 3DC (disease control rating): A: > 80; B: ≤ 80; C: Not Tested; D: No Activity Observed in the Reported Assay", "conditions": "for LV activity at 125.1 g/H PUCCRT 1DP (disease control rating) / LV activity at 125.1 g/H PUCCRT 3DC (disease control rating) / PUCCRT 1DP, LV activity at 125.1 g/H (% Control rating) / PUCCRT 3DC, LV activity at 125.1 g/H (% Control rating): low volume application; for LV activity at 125.1 g/H PUCCRT 1DP (disease control rating) / PUCCRT 1DP disease control rating, HV activity / PUCCRT 1DP, LV activity at 125.1 g/H (% Control rating): 1 Day Protectant; for LV activity at 125.1 g/H PUCCRT 1DP (disease control rating) / LV activity at 125.1 g/H PUCCRT 3DC (disease control rating) / PUCCRT 1DP disease control rating, HV activity / PUCCRT 3DC disease control rating, HV activity: wheat brown rust; for LV activity at 125.1 g/H PUCCRT 3DC (disease control rating) / PUCCRT 3DC disease control rating, HV activity / PUCCRT 3DC, LV activity at 125.1 g/H (% Control rating): 3 Day Curative; for PUCCRT 1DP disease control rating, HV activity / PUCCRT 3DC disease control rating, HV activity: HV application at 100 ppm"}, "[1]": {"conditions": "high volume application, 100 ppm, 1 day protectant"}, "[2]": {"conditions": "high volume application, 100 ppm, 3 day curative"}}, "data": [{"smiles": "COc1cccc(O[C@H](C2CC2)[C@H](C)OC(=O)[C@H](C)NC(=O)c2nccc(OC)c2OC(C)=O)c1", "note": "[Cmpd 1061]", "values": [{"measurement": "LV activity at 125.1 g/H SEPTTR 1DP (disease control rating)", "setting": "Zymoseptoria tritici", "value": "D"}, {"measurement": "LV activity at 125.1 g/H SEPTTR 3DC (disease control rating)", "setting": "Zymoseptoria tritici", "value": "B (≤ 80)"}, {"measurement": "LV activity at 125.1 g/H PUCCRT 1DP (disease control rating)", "setting": "Puccinia triticina", "value": "B (≤ 80)"}, {"measurement": "LV activity at 125.1 g/H PUCCRT 3DC (disease control rating)", "setting": "Puccinia triticina", "value": "A (> 80)"}]}, {"smiles": "COc1ccnc(C(=O)N[C@@H](C)C(=O)O[C@@H](C)[C@@H](COc2ccccc2)Oc2ccccc2)c1O", "note": "[Cmpd 315]", "values": [{"measurement": "SEPTTR 1DP disease control rating, HV activity", "setting": "Zymoseptoria tritici", "value": "B (≤ 80)"}, {"measurement": "SEPTTR 3DC disease control rating, HV activity", "setting": "Zymoseptoria tritici", "value": "B (≤ 80)"}, {"measurement": "PUCCRT 1DP disease control rating, HV activity", "setting": "Puccinia triticina", "value": "B (≤ 80)"}, {"measurement": "PUCCRT 3DC disease control rating, HV activity", "setting": "Puccinia triticina", "value": "A (> 80)"}]}, {"smiles": "COc1ccnc(C(=O)N[C@@H](C)C(=O)O[C@@H](C)[C@H](Oc2cc(F)cc(Cl)c2)c2ccccc2)c1OCOC(C)=O", "note": "[Cmpd 641]", "values": [{"measurement": "SEPTTR 1DP, LV activity at 125.1 g/H (% Control rating)", "setting": "Zymoseptoria tritici", "value": "A (> 80)"}, {"measurement": "SEPTTR 3DC, LV activity at 125.1 g/H (% Control rating)", "setting": "Zymoseptoria tritici", "value": "A (> 80)"}, {"measurement": "PUCCRT 1DP, LV activity at 125.1 g/H (% Control rating)", "setting": "Puccinia triticina", "value": "A (> 80)"}, {"measurement": "PUCCRT 3DC, LV activity at 125.1 g/H (% Control rating)", "setting": "Puccinia triticina", "value": "B (≤ 80)"}]}, {"smiles": "COc1cc(O[C@H](C2CC2)[C@H](C)OC(=O)[C@H](C)NC(=O)c2nccc(OC)c2OC(C)=O)ccc1Cl", "note": "[Cmpd 1069]", "values": [{"measurement": "LV activity at 125.1 g/H SEPTTR 1DP (disease control rating)", "setting": "Zymoseptoria tritici", "value": "B (≤ 80)"}, {"measurement": "LV activity at 125.1 g/H SEPTTR 3DC (disease control rating)", "setting": "Zymoseptoria tritici", "value": "B (≤ 80)"}, {"measurement": "LV activity at 125.1 g/H PUCCRT 1DP (disease control rating)", "setting": "Puccinia triticina", "value": "A (> 80)"}, {"measurement": "LV activity at 125.1 g/H PUCCRT 3DC (disease control rating)", "setting": "Puccinia triticina", "value": "A (> 80)"}]}, {"smiles": "CCCO[C@@H]([C@H](C)OC(=O)[C@H](C)NC(=O)c1nccc(OC)c1OC(C)=O)[C@H](CC)Oc1ccccc1", "note": "[Cmpd 511]", "values": [{"measurement": "SEPTTR 1DP, LV activity at 125.1 g/H (% Control rating)", "setting": "Zymoseptoria tritici", "value": "B (≤ 80)"}, {"measurement": "SEPTTR 3DC, LV activity at 125.1 g/H (% Control rating)", "setting": "Zymoseptoria tritici", "value": "A (> 80)"}, {"measurement": "PUCCRT 1DP, LV activity at 125.1 g/H (% Control rating)", "setting": "Puccinia triticina", "value": "A (> 80)"}, {"measurement": "PUCCRT 3DC, LV activity at 125.1 g/H (% Control rating)", "setting": "Puccinia triticina", "value": "A (> 80)"}]}, {"smiles": "COc1ccnc(C(=O)N[C@@H](C)C(=O)O[C@@H](C)COc2ccccc2)c1O", "note": "[Cmpd 335]", "values": [{"measurement": "SEPTTR 1DP disease control rating, HV activity", "setting": "Zymoseptoria tritici", "value": "B (≤ 80)"}, {"measurement": "SEPTTR 3DC disease control rating, HV activity", "setting": "Zymoseptoria tritici", "value": "D"}, {"measurement": "PUCCRT 1DP disease control rating, HV activity", "setting": "Puccinia triticina", "value": "A (> 80)"}, {"measurement": "PUCCRT 3DC disease control rating, HV activity", "setting": "Puccinia triticina", "value": "A (> 80)"}]}, {"smiles": "CCC(CC)[C@@H](Oc1ccc(C(F)(F)F)cc1)[C@H](C)OC(=O)[C@H](C)NC(=O)c1nccc(OC)c1OC(C)=O", "note": "[Cmpd 605]", "values": [{"measurement": "SEPTTR 1DP, LV activity at 125.1 g/H (% Control rating)", "setting": "Zymoseptoria tritici", "value": "A (> 80)"}, {"measurement": "SEPTTR 3DC, LV activity at 125.1 g/H (% Control rating)", "setting": "Zymoseptoria tritici", "value": "B (≤ 80)"}, {"measurement": "PUCCRT 1DP, LV activity at 125.1 g/H (% Control rating)", "setting": "Puccinia triticina", "value": "A (> 80)"}, {"measurement": "PUCCRT 3DC, LV activity at 125.1 g/H (% Control rating)", "setting": "Puccinia triticina", "value": "B (≤ 80)"}]}, {"smiles": "CC[C@H](CC1CCCC1)[C@@H](OCC1CC1)[C@H](C)OC(=O)[C@H](C)NC(=O)c1nccc(OC)c1OCOC(C)=O", "note": "[Cmpd 509]", "values": [{"measurement": "SEPTTR 1DP, LV activity at 125.1 g/H (% Control rating)", "setting": "Zymoseptoria tritici", "value": "B (≤ 80)"}, {"measurement": "SEPTTR 3DC, LV activity at 125.1 g/H (% Control rating)", "setting": "Zymoseptoria tritici", "value": "D"}, {"measurement": "PUCCRT 1DP, LV activity at 125.1 g/H (% Control rating)", "setting": "Puccinia triticina", "value": "B (≤ 80)"}, {"measurement": "PUCCRT 3DC, LV activity at 125.1 g/H (% Control rating)", "setting": "Puccinia triticina", "value": "B (≤ 80)"}]}, {"smiles": "COc1ccnc(C(=O)N[C@@H](CC(C)C)C(=O)O[C@@H](C)[C@H](Oc2ccc(Cl)cc2Cl)C(C)C)c1OC(C)=O", "note": "[Cmpd 570]", "values": [{"measurement": "SEPTTR 1DP, LV activity at 125.1 g/H (% Control rating)", "setting": "Zymoseptoria tritici", "value": "D"}, {"measurement": "SEPTTR 3DC, LV activity at 125.1 g/H (% Control rating)", "setting": "Zymoseptoria tritici", "value": "D"}, {"measurement": "PUCCRT 1DP, LV activity at 125.1 g/H (% Control rating)", "setting": "Puccinia triticina", "value": "D"}, {"measurement": "PUCCRT 3DC, LV activity at 125.1 g/H (% Control rating)", "setting": "Puccinia triticina", "value": "D"}]}, {"smiles": "C=CC[C@@H](Oc1ccc(F)cc1F)[C@H](C)OC(=O)[C@H](C)NC(=O)c1nccc(OC)c1O", "note": "[Cmpd 1023]", "values": [{"measurement": "SEPTTR 1DP disease control rating, HV activity at 100 ppm", "setting": "Zymoseptoria tritici; [1]", "value": "D"}, {"measurement": "SEPTTR 3DC disease control rating, HV activity at 100 ppm", "setting": "Zymoseptoria tritici; [2]", "value": "B (≤ 80)"}, {"measurement": "PUCCRT 1DP disease control rating, HV activity at 100 ppm", "setting": "Puccinia triticina; [1]", "value": "A (> 80)"}, {"measurement": "PUCCRT 3DC disease control rating, HV activity at 100 ppm", "setting": "Puccinia triticina; [2]", "value": "A (> 80)"}]}, {"smiles": "COc1ccnc(C(=O)NC(C)C(=O)OC(C)C(Oc2cc(F)ccc2F)C(C)C)c1O", "note": "(centres unmarked) [Cmpd 392]", "values": [{"measurement": "SEPTTR 1DP disease control rating, HV activity", "setting": "Zymoseptoria tritici", "value": "A (> 80)"}, {"measurement": "SEPTTR 3DC disease control rating, HV activity", "setting": "Zymoseptoria tritici", "value": "A (> 80)"}, {"measurement": "PUCCRT 1DP disease control rating, HV activity", "setting": "Puccinia triticina", "value": "A (> 80)"}, {"measurement": "PUCCRT 3DC disease control rating, HV activity", "setting": "Puccinia triticina", "value": "A (> 80)"}]}]}
